Assay results from patent publication US6673937B2, “Syntheses and methods of use of new antimitotic agents” (The University of Pittsburgh, priority 2000, dated 2004).

Key:
tsFT210 cells = assay: Flow cytometry, G2/M arrest in tsFT210 cells; format: cell-based, mouse; settings: 2.5 to 10 μM, 6 hours after release at 32.0° C.
Experimental: Oncogene 18:6989-6996, Th′ng JP, Wright PS, Hamaguchi J, Lee MG, Norbury CJ, Nurse P and Bradbury EM (1990) The FT210 cell line is a mouse G2 phase mutant with a temperature-sensitive CDC2 gene product. Cell 63:313-324.). Cell proliferation was blocked at G2 phase by incubation at 39.4° C. for 17 h. The synchronized cells were then released by re-incubating at 32.0° C. and treated immediately with 0-10 μM SR-7, 1 μM nocodazole or 100 EM SC-ααδ9, respectively, to probe for G2/M arrest. […] The harvested cells were stained with a solution containing 50 μg/ml propidium iodide and 250 μg/ml RNase A. Flow cytometry analysis was conducted with a Becton Dickinson FACS Star (Franklin Lakes, N.J.). […] This G2/M retention at 4C is probably due to the extended cell cycle blockage at 39.4° C. (Osada H, Cui CB, Onose R and Hanaoka F (1997) Screening of cell cycle inhibitors from microbial metabolites by a bioassay using a mouse cdc2 mutant cell line, tsFT210. Bioorg Med Chem 5:193-203). […] SC-ααδ9 is an inhibitor of the Cdc25 family of phosphatases that controls cell cycle checkpoints (Rice RL, Rusnak JM, Yokokawa F, Yokokawa S, Messner DJ, Boynton AL, Wipf P and Lazo JS (1997) A targeted library of small molecule, tyrosine and dual specificity phosphatase inhibitors derived from a rational core design and random side chain variation. Biochemistry 36:15965-15974).

Cdk1 = target: T1, Cdk1 (Homo sapiens, UniProt P06493); assay: Cdk1 kinase activity assay (histone H1 phosphorylation); format: biochemical; settings: immunoprecipitate from MCF-7 cells, 20 min
T1 construct: Lysates from asynchronous MCF-7 cells were immunoprecipitated with anti Cdk1 antibody coupled to agarose; endogenous in cells; host or cells: MCF-7 human breast cancer cells (immunoprecipitate)
Experimental: tsFT210 cells were harvested using the same procedure for cell synchronizing and drug exposure as described above for the G2/M flow cytometric analysis. The protein lysates were analyzed by Western blotting for Cdk1 as described previously (Tamura K, Southwick EC, Kerns J, Rosi K, Carr BI, Wilcox C and Lazo JS (2000) Cdc25 inhibition and cell cycle arrest by a synthetic thioalkyl vitamin K analogue. Cancer Res 60:1317-1325.). The inventors used Cdk1 isolated from human MCF-7 cells to assay for in vitro inhibition of enzyme activity because of available antibodies and convenience. Asynchronous cells grown at 37° C. in 5% CO2 in DMEM containing 10% fetal bovine serum were treated with lysis buffer and harvested as previously described (Vogt A, Wang AS, Johnson CS, Fabisiak JP, Wipf P and Lazo JS (2000) In vivo antitumor activity and induction of insulin-like growth factor-1 resistant apoptosis by SC-ααδ9. J Pharmacol Exptl Therap 292:530-537.). […] Histone H1 was separated from other proteins by SDS-PAGE and analyzed for incorporation of radioactive phosphate with a Molecular Dynamics STORM 860 Phospholmager (Sunnyvale, CA). […]

bovine brain tubulin = assay: GTP-induced tubulin assembly (turbidity); format: biochemical; settings: 40 μM
Experimental: Tubulin without microtubule-associated proteins was isolated from fresh bovine brains (Hamel E and Lin CM (1984). Separation of active tubulin and microtubule-associated proteins by ultracentrifugation and isolation of a component causing the formation of microtubule bundles. Biochemistry 23:4173-4184). Inhibition of assembly reactions was carried out as described previously (Verdier-Pinard P, Lai J-Y, Yoo H-D, Yu J, Marquez B, Nagle DG, Nambu M, White JD, Falck JR, Gerwick WH, Day BW and Hamel E (1998) Structure-activity analysis of the interaction of curacin A, the potent colchicine site antimitotic agent, with tubulin and effects of analogs on the growth of MCF-7 breast cancer cells. Mol Pharmacol 53:62-76.).
The inventors examined the ability of SR-7 to alter tubulin polymerization or depolymerization in vitro. FIG. 28, Panel A. Compounds (predissolved in DMSO) were preincubated with tubulin containing monosodium glutamate at 30 ° C. for 15 min. Samples were cooled to 0 ° C. and GTP was added. Samples were placed in a temperature-controlled multi-cuvette holder of a spectrophotometer held at 0 ° C. Baselines were established and temperature was rapidly raised to 30 ° C. Turbidity development in the cuvettes was measured at 350 nm. FIG. 28, Panel B. Compounds were added to the tubulin plus monosodium glutamate mixture at 0 ° C., placed in the spectrophotometer and temperature was raised to 30 ° C. Addition of 0.4 mM GTP to isolated bovine brain tubulin produced robust polymerization that began to plateau approximately 20 min after microtubule assembly commenced (Panel A).

T1 sequence (P06493 whole entry): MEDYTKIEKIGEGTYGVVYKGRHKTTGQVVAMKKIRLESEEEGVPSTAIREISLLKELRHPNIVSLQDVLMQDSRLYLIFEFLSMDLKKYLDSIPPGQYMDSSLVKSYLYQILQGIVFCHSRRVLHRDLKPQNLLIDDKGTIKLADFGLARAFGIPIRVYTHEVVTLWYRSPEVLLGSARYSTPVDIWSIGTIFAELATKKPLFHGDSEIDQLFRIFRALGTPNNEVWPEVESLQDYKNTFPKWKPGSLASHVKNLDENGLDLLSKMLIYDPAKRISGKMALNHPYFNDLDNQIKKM
T1 sequence (P14635 whole entry partner): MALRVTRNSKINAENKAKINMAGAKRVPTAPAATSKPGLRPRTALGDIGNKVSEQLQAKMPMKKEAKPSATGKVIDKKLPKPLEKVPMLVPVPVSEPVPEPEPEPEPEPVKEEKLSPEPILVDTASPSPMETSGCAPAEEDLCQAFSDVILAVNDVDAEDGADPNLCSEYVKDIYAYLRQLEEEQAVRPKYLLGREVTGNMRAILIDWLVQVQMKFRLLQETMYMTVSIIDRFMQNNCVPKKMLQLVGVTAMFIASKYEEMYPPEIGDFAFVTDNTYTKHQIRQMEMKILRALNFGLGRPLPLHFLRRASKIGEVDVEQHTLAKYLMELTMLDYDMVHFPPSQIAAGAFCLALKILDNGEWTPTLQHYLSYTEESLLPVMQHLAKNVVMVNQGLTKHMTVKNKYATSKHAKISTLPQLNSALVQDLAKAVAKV

O=C1C=CC2(Oc3cccc4cccc(c34)O2)c2cccc(OCc3ccco3)c21 [SR-7, 8-(furan-2-ylmethoxy)-1-oxo-1,4-dihydronaphthalene-4-spiro-2′-naphto [1″,8″-de][1′,3′] dioxin]
G2/M cell cycle transition (tsFT210 cells): concentration-dependent arrest in the G2/M phase
G2/M cell cycle transition (tsFT210 cells; listed as 27): can arrest mammalian cells in the G2/M phase
direct inhibition of Cdk1 kinase activity (Cdk1): not directly inhibited
inhibition of tubulin assembly (bovine brain tubulin): only moderate inhibition of tubulin assembly
